Results as given in article PMC5560554, “Targeting of CDK9 with indirubin 3’-monoxime safely and durably reduces HIV viremia in chronically infected humanized mice” (PLoS ONE, 2017).
Several values for one entry are separate records, joined by “and”; a condition that tells them apart may be missing. Identical values can stand only once. Entries after “also recorded” stand apart in the source; their conditions may differ.

Tests used:
[1] = Toxicity study in BALB/c mice (daily i.p. 14 days; blood counts and chemistry profiles); type: in vivo; details: daily i.p. doses of up to 20 mg/kg for 14 days
Procedure: IM (Cayman Chemicals, Ann Arbor, MI) was dissolved in 10% Cremophor EL (Sigma, St. Louis, MO). Adult, female BALB/c mice were treated with IM (2.5, 5, and 20 mg/kg; n = 5 per dose) or its vehicle (10% Cremophor EL; n = 5) daily, via intraperitoneal (i.p.) injections, for 14 days. We used mice from a single sex to reduce potential variability of the data, although gender is not expected to have an effect on the toxicity of IM. On day 14, animals were anesthesized with ketamine-xylazine (100-150mg/kg Ketamine + 10-16mg/kg Xylazine) and, after confirming (via toe pinch) that a deep surgical plane of anesthesia had been reached, blood was collected by cardiac puncture. Blood samples were submitted for measurements of blood chemistry profiles and of blood counts.
There is currently limited information on IM toxicity. […] To better evaluate the toxicity of IM we conducted toxicity studies following standard protocols. We used BALB/c mice because, unlike NSG mice, are fully immunocompetent and thus more suitable for assessing hematological toxicities. BALB/c mice were treated with IM (2.5, 5 and 20 mg/kg; n = 5 per dose) or its vehicle (n = 5) daily, via i.p. injections, for 14 days. […] Mice were monitored daily for morbidity and mortality. […] The other 19 mice remained healthy and had no evidence of morbidity. […] Creatinine levels below reference ranges may be due to sample hemolysis. […]

HIV = test system: HIV; parameters: method as in PMID 24401082; details: cited from earlier work
[2] = Pharmacokinetics of IM in NSG mice (single i.p. injection, plasma by HPLC); type: in vivo; details: for Conc (plasma IM), individual mice: 40 mg/kg
Procedure: Fasting, female NSG mice (n = 16) were injected with 40 mg/kg IM via i.p. Blood samples were obtained pre-dose (30 minutes before compound injection) and at 5, 15, 30, 60, 120, 180, 240 and 300 minutes after injection using a sparse sampling design (n = 2 samples per mouse, n = 4 samples per time point). Separated plasma was further extracted and processed for analysis, and IM concentrations determined using HPLC analysis. In brief, sample processing involved extraction of plasma (30 μL) with 400 μL acetonitrile and 2 μg/mL internal standard ([…]). The sample was briefly vortexed and centrifuged (12 minutes, 6°C), with transfer of 400 μL of supernatant to a clean test tube. The sample was evaporated to dryness under nitrogen, reconstituted in 50 μL of methanol:water (75:25), and 20 μL was injected onto the column. The concentration of primary analyte (IM) and internal standard (IS) d4-estrone were determined using a Shimadzu Nexera X2 liquid chromatography system coupled with a SPD-M30A UV-VIS diode array detector. The liquid chromatography separation was performed on a Prodigy ODS-3V C18 column, 250 × 4.6 mm, 5 μm. The mobile phase consisted of 35% water and 65% Methanol (Optima LC-MS grade) delivered at a flow rate of 0.85 mL/min. Retention times for IM and IS were 13 and 15 minutes, respectively, with detection at 280 nm. The IM peak identity was confirmed using the complete 240–600 nm absorbance spectra. The standard concentration curve was linear over the range of 0.025 μg/mL– 4.0 μg/mL using regression plots of IM to internal standard peak area ratios versus drug concentrations derived with 1/x2 weighting. […] Non-compartmental pharmacokinetic parameters were determined from pooled average data at each time point using Phoenix WinNonlin v6.4 (Certara, St. Louis, MO).
We evaluated the pharmacokinetics of IM in NSG mice following a single i.p. injection of 40 mg/kg, a dose that inhibited plasma HIV RNA levels by 2 log 10 units in our previous study. Data (S1 Table) were plotted on concentration-time curves and pharmacokinetic parameter values determined (Fig 1). […] Thus, IM concentrations above HIV EC50 values are rapidly achieved and maintained for > 3 h following i.p. injection of 40 mg/kg IM.
Fig 1 Pharmacokinetics of IM in mice. NSG mice (n = 16) were i.p. injected with 40 mg/kg IM. Blood samples were obtained pre-dose and at 5, 15, 30, 60, 120, 180, 240 and 300 minutes after injection using a sparse sampling design (n = 2 samples per mouse, n = 4 samples per time point). Separated plasma was further extracted and processed for analysis, and IM concentrations were determined using HPLC analysis.

[3] = in vivo; cited from earlier work

O=C1Nc2ccccc2/C1=C1/Nc2ccccc2/C1=N\O [IM, Indirubin 3’-monoxime]
hematologic, renal or liver toxicity [1]: not associated with hematologic, renal or liver toxicity; also recorded: no hematologic, liver or renal toxicity | inhibition of plasma HIV RNA levels (HIV; 40 mg/kg, previous study): 2 log 10 units | general toxicity (HIV; NSG mice, daily doses between 2.5 and 40 mg/kg): absence of general toxicity | Conc (plasma IM), individual mice ([2]; 5 min after i.p. 40 mg/kg): 1056 ng/mL and 1492 ng/mL and 1336 ng/mL and 54 ng/mL | Conc (plasma IM), individual mice ([2]; 15 min after i.p. 40 mg/kg): 3005 ng/mL and 2975 ng/mL and 3996 ng/mL and 2773 ng/mL | Conc (plasma IM), individual mice ([2]; 30 min after i.p. 40 mg/kg): 4918 ng/mL and 2550 ng/mL and 29 ng/mL and 3217 ng/mL | Conc (plasma IM), individual mice ([2]; 60 min after i.p. 40 mg/kg): 2983 ng/mL and 2619 ng/mL and 2828 ng/mL and 2005 ng/mL | Conc (plasma IM), individual mice ([2]; 120 min after i.p. 40 mg/kg): 4276 ng/mL and 1171 ng/mL and 1632 ng/mL and 14 ng/mL | Conc (plasma IM), individual mice ([2]; 180 min after i.p. 40 mg/kg): 380 ng/mL and 1062 ng/mL and 56 ng/mL and 217 ng/mL | Conc (plasma IM), individual mice ([2]; 240 min after i.p. 40 mg/kg): 285 ng/mL and 58 ng/mL and 14 ng/mL and 376 ng/mL | Conc (plasma IM), individual mice ([2]; 300 min after i.p. 40 mg/kg): 44 ng/mL and 79 ng/mL and 83 ng/mL and 35 ng/mL | AUC ([2]; single i.p. 40 mg/kg, plasma): 370 ± 64 µg·min/mL | elimination t1/2 ([2]; single i.p. 40 mg/kg, plasma): 42.4 min | maximum concentration of IM in plasma (Cmax) ([2]; single i.p. 40 mg/kg, plasma): 3190 ± 270 ng/mL | Cmax ([2]; single i.p. 40 mg/kg, plasma, converted from μg/mL): 11.5 ± 0.97 µM | penetration in brain [3]: favorable penetration in brain
